This is an account of results in US20120178765A1, “NOVEL GLUCOKINASE ACTIVATORS AND PROCESSES FOR THE PREPARATION THEREOF” (YUHAN CORPORATION, priority 2009, published 2012).

For this experiment, the target named is T1, Glucokinase (Homo sapiens, UniProt P35557).
T1 construct: purchased ProteinOne Inc
T1 sequence (P35557 1-465): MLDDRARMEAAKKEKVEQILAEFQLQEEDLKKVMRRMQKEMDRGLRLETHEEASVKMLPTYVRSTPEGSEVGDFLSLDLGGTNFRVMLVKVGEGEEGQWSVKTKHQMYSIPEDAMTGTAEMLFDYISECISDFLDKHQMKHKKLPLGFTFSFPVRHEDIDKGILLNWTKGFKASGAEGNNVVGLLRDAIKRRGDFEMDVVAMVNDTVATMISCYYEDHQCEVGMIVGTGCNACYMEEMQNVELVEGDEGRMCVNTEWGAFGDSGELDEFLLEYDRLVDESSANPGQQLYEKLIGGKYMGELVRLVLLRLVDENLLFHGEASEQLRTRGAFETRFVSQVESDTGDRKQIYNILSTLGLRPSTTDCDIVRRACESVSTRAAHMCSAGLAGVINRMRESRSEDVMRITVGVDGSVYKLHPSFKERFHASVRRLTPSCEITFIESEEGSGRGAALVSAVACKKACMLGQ
In words: Glucokinase activation assay (NADPH absorbance at 340 nm). In kind it is biochemical. As to conditions: glucokinase (ProteinOne Inc.), 5 mM D(+)-glucose, 24° C., 90 minutes. The protocol:
The amounts of glucokinase activation were determined by measuring the levels of NADPH (the final metabolite of glucose through glucokinase-mediated phospho-rylation) and then calculating to glucokinase activities.
Glucokinase (ProteinOne Inc.) was added, in the concentration of 100 ng/uL, to a enzyme-reaction medium (25 mM HEPES pH 7, 25 mM KCL, 1 mM MgCl, 5 mM D(+)-glucose, 1 mM ATP, 1 mM NADP, 1 mM DTT, and 2.5 u/mL G6PDH). Each compound in predetermined concentrations was added to the enzyme-reaction medium and then absorbance (First Absorbance) was measured at 340 nm of wavelength. After measuring the first absorbance, each reaction mixture was incubated at 24° C. for 90 minutes and then absorbance (Second Absorbance) was re-measured at 340 nm of wavelength. Using changes between First Absorbance and Second Absorbance, glucokinase activity was calculated. In the calculation, a maximum activity of the test compound (Emax), in comparison to the control group (no treatment of compound) was determined and then EC50 was calculated using the software for statistical analysis “Prism”, based on the activity-changes according to concentrations of the test compounds.
The amounts of glucokinase activation of the compounds of Comparative Examples 1 and 2 were determined, in accordance with the same procedures as in Test Example 1.

Counter-ions that a name gives are not always drawn.

One may read the EC50 as the concentration needed to bring the measured effect to its halfway point. Lower therefore signals higher potency in that assay.

Compound `COC[C@H](C)Oc1cc(/C=C/c2cc(OC)cc(OC)c2)cc(C(=O)Nc2ccn(C)n2)c1` (stereo in doubt) [Example 40, 3-[trans-2-(3,5-dimethoxyphenyl)vinyl]-5-(2-methoxy-(1S)-methyl-ethoxy)-N-(1-methyl-1H-pyrazol-3-yl)-benzamide] had an EC50 of 174 nM.

As to “3-[trans-2-(2-fluorophenyl)vinyl]-5-(2-methoxy-(1S)-methyl-ethoxy)-N-(1-methyl-1H-pyrazol-3-yl)-benzamide [Example 33]”, the response was half-maximal at 79.8 nM (EC50).

Consider “3-{2-[3-(3-phenyl-ureido)phenyl]ethyl}-5-(2-methoxy-(1S)-methyl-ethoxy)-N-(thiazol-2-yl)-benzamide [Example 130]”, for which the midpoint of the response, the EC50, lay at 227 nM.

Compound “3-[2-(2-chlorophenyl)ethyl]-5-(2-methoxy-(1S)-methyl-ethoxy)-N-(1-methyl-1H-pyrazol-3-yl)-benzamide [Example 101]” returned an EC50 of 85.6 nM.

“3-[2-(2-acetylaminophenyl)ethyl]-5-(2-methoxy-(1S)-methyl-ethoxy)-N-(thiazol-2-yl)benzamide [Example 116]” yielded an EC50 of 318 nM.

In turn, “3-[2-(3-butyrylaminophenyl)ethyl]-5-(2-methoxy-(1S)-methyl-ethoxy)-N-(thiazol-2-yl)-benzamide [Example 119]” displayed an EC50 of 370 nM.

The compound “3-[2-(3-aminophenyl)ethyl]-5-(2-methoxy-(1S)-methyl-ethoxy)-N-(thiazol-2-yl)-benzamide [Example 91]” displayed an EC50 of 68.9 nM.

For `CC(C)COc1cc(/C=C/c2ccccc2[N+](=O)[O-])cc(C(=O)Nc2nccs2)c1` [Example 3, 3-[trans-2-(2-nitrophenyl)vinyl]-5-isobutoxy-N-(thiazol-2-yl)-benzamide], the EC50 came out at 90.2 nM.

The compound “3-[trans-2-(2-methoxyphenyl)vinyl]-5-(2-methoxy-(1S)-methyl-ethoxy)-N-(1-methyl-1 H-pyrazol-3-yl)-benzamide [Example 42]” yielded an EC50 of 115 nM. This EC50 and that of the compound before are within 1.5-fold of each other.

Take `COC[C@H](C)Oc1cc(/C=C/c2ccc(F)cc2F)cc(C(=O)Nc2ccc(C(=O)OC)cn2)c1` [Example 67, 3-[trans-2-(2,4-difluorophenyl)vinyl]-5-(2-methoxy-(1S)-methyl-ethoxy)-N-(nicotinic acid-3-methyl ester-6-yl)-benzamide]: the response was half-maximal at 231 nM (EC50).

Regarding “3-[trans-2-(2,3-difluorophenyl)vinyl]-5-(2-methoxy-(1S)-methyl-ethoxy)-N-(5-fluorothiazol-2-yl)-benzamide [Example 24]”, the EC50 was 47.3 nM.

The compound “3-[trans-2-(3,5-dimethoxyphenyl)vinyl]-5-(2-methoxy-(1S)-methyl-ethoxy)-N-(pyrazin-2-yl)-benzamide [Example 50]” gave an EC50 of 311 nM.

Compound `CCC(COC)Oc1cc(/C=C/c2ccc(F)cc2)cc(C(=O)Nc2nccs2)c1` (stereo not drawn) [Example 148, 3-[trans-2-(4-fluorophenyl)vinyl]-5-(1-methoxymethyl-propoxy)-N-(thiazol-2-yl)-benzamide] came in with an EC50 of 417 nM. This EC50 and that of the compound before are within 1.5-fold of each other.

Regarding `COC[C@H](C)Oc1cc(CCc2cccc(NC(=O)c3ccncc3)c2)cc(C(=O)Nc2nccs2)c1` [Example 128, 3-[2-(3-isonicotinamidephenyl)ethyl]-5-(2-methoxy-(1S)-methyl-ethoxy)-N-(thiazol-2-yl)-benzamide], the EC50 is 200 nM.

In turn, `COC[C@H](C)Oc1cc(CCc2ccccc2F)cc(C(=O)Nc2ccn(C)n2)c1` [Example 94, 3-[2-(2-fluorophenyl)ethyl]-5-(2-methoxy-(1S)-methyl-ethoxy)-N-(1-methyl-1-pyrazol-3-yl)-benzamide] had an EC50 of 217 nM.

Regarding `COC[C@H](C)Oc1cc(/C=C/c2ccc(F)cc2)cc(C(=O)Nc2ccc(C(=O)O)cn2)c1` [Example 77, 3-[trans-2-(4-fluorophenyl)vinyl]-5-(2-methoxy-(1S)-methyl-ethoxy)-N-(nicotinic acid-6-yl)-benzamide], the response was half-maximal at 120 nM (EC50).

In turn, “3-[2-(2-aminophenyl)ethyl]-5-(2-methoxy-(1S)-methyl-ethoxy)-N-(thiazol-2-yl)-benzamide [Example 88]” had a 50% effective concentration (EC50) of 108 nM. This EC50 and that of the compound before are within 1.5-fold of each other.

The compound “3-[trans-2-(4-bromophenyl)vinyl]-5-(2-methoxy-(1S)-methyl-ethoxy)-N-(1-methyl-1H-pyrazol-3-yl)-benzamide [Example 45]” yielded an EC50 of 181 nM.

Take “3-{2-[3-(3-ethyl-thio-ureido)phenyl]ethyl}-5-(2-methoxy-(1S)-methyl-ethoxy)-N-(thiazol-2-yl)-benzamide [Example 131]”: a half-maximal response (EC50) required 491 nM. Compared with the last compound, the EC50 is about 2.7-fold higher.

As for “3-[trans-2-(2-fluorophenyl)vinyl]-5-(2-methoxy-(1S)-methyl-ethoxy)-N-(pyrazin-2-yl)-benzamide [Example 51]”, the EC50 was 238 nM.

With `COC[C@H](C)Oc1cc(/C=C/c2ccccc2Cl)cc(C(=O)Nc2ccn(C)n2)c1` (stereo in doubt) [Example 46, 3-[trans-2-(2-chlorophenyl)vinyl]-5-(2-methoxy-(1S)-methyl-ethoxy)-N-(1-methyl-1H-pyrazol-3-yl)-benzamide], the response was half-maximal at 149 nM (EC50).

Compound “3-{2-[4-(4-chlorobenzoylamino)phenyl]ethyl}-5-(2-methoxy-(1S)-methyl-ethoxy)-N-(thiazol-2-yl)-benzamide [Example 140]” had an EC50 of 440 nM.

For “3-[trans-2-(2-methoxyphenyl)vinyl]-5-(2-methoxy-(1S)-methyl-ethoxy)-N-(1-methyl-1H-pyrazol-3-yl)-benzamide [Example 83]”, it took 115 nM to reach a half-maximal effect (EC50).

As for `COC[C@H](C)Oc1cc(/C=C/c2ccccc2[N+](=O)[O-])cc(C(=O)Nc2ccc(C(=O)O)cn2)c1` [Example 74, 3-[trans-2-(2-nitrophenyl)vinyl]-5-(2-methoxy-(1S)-methyl-ethoxy)-N-(nicotinic acid-6-yl)-benzamide], the EC50 was determined as 296 nM. Against the preceding compound, the EC50 is about 2.6-fold higher.

For “3-{2-[3-(4-nitrobenzoylamino)phenyl]ethyl}-5-(2-methoxy-(1S)-methyl-ethoxy)-N-(thiazol-2-yl)-benzamide [Example 127]”, the EC50 turned out to be 266 nM.

In turn, `COC[C@H](C)Oc1cc(/C=C/c2ccccc2OC)cc(C(=O)Nc2ccc(C(=O)O)cn2)c1` [Example 73, 3-[trans-2-(2-methoxyphenyl)vinyl]-5-(2-methoxy-(1S)-methyl-ethoxy)-N-(nicotinic acid-6-yl)-benzamide] gave an EC50 of 82.8 nM.

Consider `COC[C@H](C)Oc1cc(/C=C/c2ccc(F)cc2F)cc(C(=O)Nc2ccc(C(=O)O)cn2)c1` [Example 79, 3-[trans-2-(2,4-difluorophenyl)vinyl]-5-(2-methoxy-(1S)-methyl-ethoxy)-N-(nicotinic acid-6-yl)-benzamide], for which the EC50 turned out to be 95.1 nM.

`COC[C@H](C)Oc1cc(/C=C/c2ccccc2OC)cc(C(=O)Nc2ccc(C(=O)OC)cn2)c1` [Example 61, 3-[trans-2-(2-methoxyphenyl)vinyl]-5-(2-methoxy-(1S)-methyl-ethoxy)-N-(nicotinic acid-3-methyl ester-6-yl)-benzamide] displayed an EC50 of 276 nM.

The compound “3-[2-(4-fluorophenyl)ethyl]-5-(2-methoxy-(1S)-methyl-ethoxy)-N-(1-methyl-1H-pyrazol-3-yl)-benzamide [Example 98]” showed a concentration for a half-maximal effect (EC50) of 216 nM.

The compound `COC[C@H](C)Oc1cc(/C=C/c2c(F)cccc2F)cc(C(=O)Nc2ccn(C)n2)c1` (stereo in doubt) [Example 37, 3-[trans-2-(2,6-difluorophenyl)vinyl]-5-(2-methoxy-(1S)-methyl-ethoxy)-N-(1-methyl-1H-pyrazol-3-yl)-benzamide] showed a 50% effective concentration (EC50) of 161 nM. The EC50 values of the last two compounds are within 1.5-fold of each other.

“3-[2-(4-benzoylaminophenyl)ethyl]-5-(2-methoxy-(1S)-methyl-ethoxy)-N-(thiazol-2-yl)-benzamide [Example 138]” came in with an EC50 of 292 nM. This EC50 is about 1.8-fold higher than that of the compound before.

`COC[C@H](C)Oc1cc(CCc2ccc(N)cc2)cc(C(=O)Nc2nccs2)c1` [Example 112, 3-[2-(4-aminophenyl)ethyl]-5-(2-methoxy-(1S)-methyl-ethoxy)-N-(thiazol-2-yl)-benzamide hydrochloride]: the concentration for a half-maximal effect (EC50) turned out to be 126 nM.

“3-{2-[4-(3,5-dimethoxybenzoylamino)phenyl]ethyl}-5-(2-methoxy-(1S)-methyl-ethoxy)-N-(thiazol-2-yl)-benzamide [Example 141]” yielded a concentration giving a half-maximal response (EC50) of 355 nM.

Compound `COC[C@H](C)Oc1cc(/C=C/c2ccc(F)cc2)cc(C(=O)Nc2ccc(C(=O)OC)cn2)c1` [Example 65, 3-[trans-2-(4-fluorophenyl)vinyl]-5-(2-methoxy-(1S)-methyl-ethoxy)-N-(nicotinic acid-3-methyl ester-6-yl)-benzamide] came in with an EC50 of 292 nM.
